{
  "source": "patent US20260240154A1",
  "about": "“GLOBODERA PALLIDA CONTROL AGENT” (National Agriculture and Food Research Organization, priority 2021, published 2026)",
  "data": [
    {"tested_on": "Globodera pallida eggs", "assay": "Hatching accelerating effect evaluation test for Globodera pallida (liquid immersion test)", "type": "in vivo", "conditions": "1 mL of 2 ppm test reagent solution added to 1 mL egg suspension; 16° C.; about 2 weeks; two replicates", "procedure": "A predetermined amount of compound (I) was dissolved in an aqueous solution containing 0.05% (v/v) of polyoxyethylene sorbitan monolaurate (Tween20) to prepare a 100 ppm solution of compound (I).\nThe 100 ppm solution of compound (I) was further diluted with a 0.05% (v/v) Tween20 aqueous solution to prepare a test reagent solution with a concentration of compound (I) of 2 ppm.\nThe cysts of Globodera pallida increased in a greenhouse before the previous year were isolated from the soil, immersed in distilled water and kept at 16° C. for about 2 weeks were crushed with a scalpel and the eggs were taken out to obtain an egg suspension. After preparing a density of approximately 600 eggs per mL, Tween 20 was added to a concentration of 0.05% (v/v). 1 mL of this egg suspension was put into a 13.5 mL screw cap glass vial (inner diameter: 2.1 cm, height: 4.8 cm), and 1 mL each of a test reagent solution with a concentration of compound (I) of 2 ppm was added. It was covered and kept at 16° C.\nAbout 2 weeks later, 1 mL was taken out, and the number of hatching larvae and the number of eggs were counted under a stereomicroscope. Two replicates were installed for each compound, and the average hatching rate was calculated.", "units": {"Average hatching rate (%)": "%"}, "values": [
      {"smiles": "CC1(C)OC(=O)CC1c1ccc(F)cc1", "note": "(centres unmarked) [Compound 19, 4-(4-fluorophenyl)-5,5-dimethyldihydrofuran-2(3H)-one]", "Average hatching rate (%)": 84.6},
      {"smiles": "Cc1ccccc1C1CC(=O)OC1(C)C", "note": "(centres unmarked) [Compound 20, 5,5-dimethyl-4-(o-tolyl)dihydrofuran-2(3H)-one]", "Average hatching rate (%)": 63.1},
      {"smiles": "CC1(C)CC(=O)CC1c1ccccc1", "note": "(centres unmarked) [Compound 21, 3,3-dimethyl-4-phenyl-cyclopentanone]", "Average hatching rate (%)": 76.6},
      {"smiles": "CC1(C)NC(=O)CCC1c1ccccc1", "note": "(centres unmarked) [Compound A-1]", "Average hatching rate (%)": 77.4},
      {"smiles": "CC1(C)NC(=O)CCC1c1ccc(Br)cc1", "note": "(centres unmarked) [Compound A-2]", "Average hatching rate (%)": 97.4},
      {"smiles": "COC(=O)c1ccc(C2CCC(=O)NC2(C)C)cc1", "note": "(centres unmarked) [Compound A-4]", "Average hatching rate (%)": 68.8},
      {"smiles": "CC1(C)SC(=O)CCC1c1ccccc1", "note": "(centres unmarked) [Compound A-5]", "Average hatching rate (%)": 92.6},
      {"smiles": "CC1(C)SC(=O)CCC1c1ccc(Cl)cc1", "note": "(centres unmarked) [Compound A-6, 5-(4-chlorophenyl)-6,6-dimethyl tetrahydro-2H-thiopyran-2-one]", "Average hatching rate (%)": 93.6},
      {"smiles": "Cc1ccc(C2CCC(=O)SC2(C)C)cc1", "note": "(centres unmarked) [Compound A-7]", "Average hatching rate (%)": 93.9},
      {"smiles": "CC1(C)OC(=S)CC1c1ccccc1", "note": "(centres unmarked) [Compound B-1]", "Average hatching rate (%)": 70.4},
      {"smiles": "Cc1ccc(C2CC(=S)OC2(C)C)cc1", "note": "(centres unmarked) [Compound B-2, 5,5-dimethyl-4-(p-tolyl)dihydrofuran-2 (3H)-thione]", "Average hatching rate (%)": 86.6},
      {"smiles": "Cc1ccc(C)c(C2CC(=S)OC2(C)C)c1", "note": "(centres unmarked) [Compound B-3]", "Average hatching rate (%)": 21.2},
      {"smiles": "CC1(C)SC(=O)CC1c1ccccc1", "note": "(centres unmarked) [Compound B-4]", "Average hatching rate (%)": 96.3},
      {"smiles": "CC1(C)SC(=O)CC1c1ccc(Br)cc1", "note": "(centres unmarked) [Compound B-5]", "Average hatching rate (%)": 96.9},
      {"smiles": "Cc1ccc(C2CC(=O)SC2(C)C)cc1", "note": "(centres unmarked) [Compound B-6, 5,5-dimethyl-4-(p-tolyl)dihydrothiophene-2 (3H)-one]", "Average hatching rate (%)": 97.1},
      {"smiles": "CC1(C)SC(=O)CC1c1ccc(Cl)cc1", "note": "(centres unmarked) [Compound B-7]", "Average hatching rate (%)": 96.6},
      {"smiles": "Cc1ccc(C)c(C2CC(=O)SC2(C)C)c1", "note": "(centres unmarked) [Compound B-8]", "Average hatching rate (%)": 51.2},
      {"smiles": "CC1(C)NS(=O)(=O)CC1c1ccccc1", "note": "(centres unmarked) [Compound B-9]", "Average hatching rate (%)": 69.5},
      {"smiles": "CC1(C)NS(=O)(=O)CC1c1ccc(Br)cc1", "note": "(centres unmarked) [Compound B-10]", "Average hatching rate (%)": 82.7},
      {"smiles": "Cc1ccc(C2CS(=O)(=O)NC2(C)C)cc1", "note": "(centres unmarked) [Compound B-11]", "Average hatching rate (%)": 80.2},
      {"smiles": "CC1(C)NS(=O)(=O)CC1c1ccc(Cl)cc1", "note": "(centres unmarked) [Compound B-12, 4-(4-chlorophenyl)-3,3-dimethylisothiazolidine-1,1-dioxide]", "Average hatching rate (%)": 93.0},
      {"smiles": "Cc1cccc(C2CC(=O)OC2(C)C)c1C", "note": "[Compound D-1]", "Average hatching rate (%)": 65.6},
      {"smiles": "Cc1ccc(C2CC(=O)OC2(C)C)c(C)c1", "note": "[Compound D-2]", "Average hatching rate (%)": 94.7},
      {"smiles": "Cc1ccc(C2CC(=O)OC2(C)C)cc1C", "note": "[Compound D-3]", "Average hatching rate (%)": 58.8},
      {"smiles": "Cc1cc(C)cc(C2CC(=O)OC2(C)C)c1", "note": "[Compound D-4]", "Average hatching rate (%)": 40.1},
      {"smiles": "CCc1ccc(C2CC(=O)OC2(C)C)cc1", "note": "[Compound D-5]", "Average hatching rate (%)": 56.6},
      {"smiles": "CC(C)(C)c1ccc(C2CC(=O)OC2(C)C)cc1", "note": "[Compound D-6]", "Average hatching rate (%)": 67.5},
      {"smiles": "CC1(C)NC(=O)CC1c1ccc(Cl)c(Cl)c1", "note": "[Compound D-7]", "Average hatching rate (%)": 95.2},
      {"smiles": "Cc1ccc(C2CC(=S)NC2(C)C)cc1", "note": "[Compound D-8]", "Average hatching rate (%)": 91.8},
      {"smiles": "CC1(C)OC(=O)C=C1c1ccc(Cl)cc1", "note": "[Compound D-9]", "Average hatching rate (%)": 50.1},
      {"smiles": "CC1(C)OC(=O)C=C1c1cccc2ccccc12", "note": "[Compound D-10]", "Average hatching rate (%)": 36.4},
      {"smiles": "CC1(C)OC(=O)C=C1c1ccc2ccccc2c1", "note": "[Compound D-11]", "Average hatching rate (%)": 59.0},
      {"smiles": "CC1(C)OC(=O)C=C1c1ccc(-c2ccc(Cl)cc2)cc1", "note": "[Compound D-12]", "Average hatching rate (%)": 52.0},
      {"smiles": "Cc1ccccc1C1=CC(=O)OC1(C)C", "note": "[Compound D-13]", "Average hatching rate (%)": 60.1},
      {"smiles": "Cc1cccc(C2=CC(=O)OC2(C)C)c1C", "note": "[Compound D-14]", "Average hatching rate (%)": 63.7}
    ]}
  ]
}
